Reference: patent US12251424B2, “Methods of protecting vascular integrity induced by targeted radiation therapy” (Janssen Pharmaceutica NV, priority 2017, dated 2025)

Legend:
[1] = 3,000 μg/kg; administered at multiple time points; whole body radiation; cited from earlier work
ear vasculature [2] = assay: Murine ear vein model: leukocyte-endothelial cell (L/E) interactions (acridine orange intravital microscopy); assay type: in vivo, Flk1-mCherry mice
Source text: (§1) Immediately prior to injection, aliquots were thawed and diluted.
(§2) Mice were anesthetized via isoflurane (2%, mixed with oxygen) and the ear was chemically depilated (Nair™) and cleaned with 70% ethanol. The mouse was placed on a heated stage underneath a Zeiss Observer.Z1 (Carl Zeiss AG, Oberkochen, Germany) inverted microscope. The irradiated ear was affixed to a plexi-glass slide using double-sided tape. Images were acquired using Zen Imaging software (Carl Zeiss AG, Oberkochen, Germany). The vascular endothelial cells in Flk1-mCherry mice express mCherry, which was visualized using a Zeiss Texas Red filter (Ex. 560/40; Em. 630/75). Acridine orange and FITC-dextran were visualized using a Zeiss eGFP/FITC/Alexa488 filter (Ex. 470/40; Em. 525/50).
After orienting the mouse on the microscope, 0.5 mg of acridine orange (Sigma, St. Louis, MO; dissolved in sterile saline) was injected intravenously. […] Four venules per mouse were identified, based on their diameter, and the number of leukocytes that rolled past three pre-selected points in each venule were counted. The vessel diameter (D) and free-flowing leukocyte velocities (V) were also measured, and used to calculate shear rate, defined as (8×V)/D. All videos were analyzed by researchers blinded to the treatment groups. […]
B), and slopes were calculated for each individual mouse using GraphPad Prism. […]

[3] = Rat weight gain after 20 Gy targeted prostate RT; assay type: in vivo, Sprague Dawley rats
Experimental: (§3) Thirty-five eight-week-old male Sprague Dawley rats were obtained from Charles River Laboratories (Malvern, Pa.) and pair-housed under standard housing conditions. Animals were divided into 4 groups: Saline/Sham, Saline RT, TPOm/Sham, TPOm/RT.
(§4) TPOm was administered as a single dose via sub-cutaneous injection (3,000 μg/kg) 10 minutes after RT.
Stereotactic image-guided prostate single fraction RT was performed as published previously (Kimura et al., J. Sex Med. 9(6):1535-49 (2012)). In brief, rats were anesthetized and immobilized on a polystyrene block. A CT scan was performed to image the entire pelvis using a GE Discovery RT590 (GE Healthcare, Little Chalfont, UK). Individualized treatment plans were prepared for each rat using the Eclipse treatment planning system (Varian Medical Systems, Palo Alto, CA). The prostate and rectum were contoured, with the primary treatment volume generated by expansion of the prostate by 1 mm followed by subtraction of the rectum expanded by 1 mm. A single, dynamic conformal arc plan using a beam energy of 6 MV was normalized to deliver 20 Gy to 95% of the primary treatment volume in a single fraction with partial sparing of the rectum. […]
(§5) Statistical analysis was completed using Prism 6 (GraphPad, LaJolla, CA). […] Rat weight was assessed using a two-way repeated measures ANOVA.

[4] = mouse, in vivo
Experimental: Male and female mice of at least 8 weeks of age were transferred to a non-barrier facility and group housed throughout the experiments.
Mice were anesthetized with 80/8 mg/kg ketamine/xylazine i.p. injection. Mice were placed in cylindrical lead jigs that shielded the entire body with the exception of the left ear pinna and were irradiated using an Orthovoltage X-ray 320 irradiator (Precision X-ray Inc.; North Branford, CT) at a dose rate of 203 cGy/minute (320 kVp/10 mA with a 2 mm Al filter).
TPOm was reconstituted in sterile saline, sterile filtered, aliquoted, and stored at −20° C. until use. Immediately prior to injection, aliquots were thawed and diluted. Mice received 300 μg/kg of TPOm, sub-cutaneously, six hours after radiation.
Mice were euthanized with 50 μL Euthasol (Virbac, Fort Worth, TX) injected intraperitoneally. After mice became non-responsive to toe pinch, but prior to heartbeat cessation, 500 μL of blood was collected by cardiac puncture via heparinized syringe, and immediately vortexed with 20 μL heparin. CBC analysis was conducted using an IDEXX ProCyte Dx Hematology analyzer by the Duke University Veterinary Diagnostic Laboratory.

internal pudendal artery = assay: Ultrasonographic measurement of hydralazine-induced vasodilation after prostate RT; assay type: in vivo, Sprague Dawley rats
Experimental: as §3, §4
(§6) Stereotactic image-guided prostate single fraction RT was performed as published previously (Kimura et al., J. Sex Med. 9(6):1535-49 (2012)). In brief, rats were anesthetized and immobilized on a polystyrene block. A CT scan was performed to image the entire pelvis using a GE Discovery RT590 (GE Healthcare, Little Chalfont, UK). Individualized treatment plans were prepared for each rat using the Eclipse treatment planning system (Varian Medical Systems, Palo Alto, CA). The prostate and rectum were contoured, with the primary treatment volume generated by expansion of the prostate by 1 mm followed by subtraction of the rectum expanded by 1 mm. A single, dynamic conformal arc plan using a beam energy of 6 MV was normalized to deliver 20 Gy to 95% of the primary treatment volume in a single fraction with partial sparing of the rectum. The majority of the bladder, the penis and the testes were excluded from the field. The rat was then treated on a NovalisTx radiosurgery linac (Brainlab AG, Munich, DE and Varian Medical Systems) using cone beam computed tomography prior to treatment with bony image guidance within the same anesthesia window as planning. Sham irradiated rats were anesthetized and immobilized on a polystyrene block without irradiation.
Following ICP measurements, acoustic gel was applied to the prostate area and a mouse high frequency echo transducer (MS5505) was applied to the internal pudendal artery. […] Reproducible US placement was verified by using the same US-measured distance to the pubic bone in all animals. […] Arterial diameter was measured using the vascular package for Vevo 2100 software.
as §5

ear vasculature [5] = assay: Murine ear vein model: vascular permeability (FITC-dextran, intravital microscopy, Patlak analysis); assay type: in vivo, Flk1-mCherry mice; conditions: TPOm following radiation; days 3 and 7 post-irradiation
Source text: as §1, §2
After orienting the mouse on the microscope, a 30G needle attached to a syringe with Tygon Microbore tubing catheter (Harvard Apparatus) was inserted into the tail vain. Z-stack images of both the FITC and mCherry channels were acquired every 10 seconds, and 0.5 mg of FITC-conjugated 70 kDa dextran injected through the catheter after the third set image of images was collected. […]
Model (0.1) postulates that the change in tissue concentration at time t is proportional to CB(t-Δ), concentration of dextran in the vasculature at a delay Δ. […] In this setting, the quantity of interest is k1, the permeability rate. […]

erectile function = assay: Intracavernous pressure (ICP) measurements, radiation-induced erectile dysfunction; assay type: in vivo, Sprague Dawley rats
Experimental: as §3, §4, §6
For intracavernous pressure (ICP) measurements, a previously published protocol was followed (Kimura et al., J. Sex Med. 8(8):2215-26 (2011)). […] MAP and ICP were recorded using LabChart 7 software (ADInstruments, Colorado Spring, CO), and expressed as a ratio to minimize inter-rat differences in baseline pressure and effects of anesthesia.
as §5

penile artery = assay: CD31 staining and quantification of penile arteries after prostate RT; assay type: in vivo, Sprague Dawley rats
Experimental: as §3, §4
Stereotactic image-guided prostate single fraction RT was performed as published previously (Kimura et al., J. Sex Med. 9(6):1535-49 (2012)). In brief, rats were anesthetized and immobilized on a polystyrene block. A CT scan was performed to image the entire pelvis using a GE Discovery RT590 (GE Healthcare, Little Chalfont, UK). Individualized treatment plans were prepared for each rat using the Eclipse treatment planning system (Varian Medical Systems, Palo Alto, CA). […]
Penises were snap-frozen in liquid nitrogen and stored at −80° C. until use. […] CD31 expression was then quantified by highlighting only the CD31 stained portion surrounding each vessel, and obtaining a pixel count of the stained region, using a uniform threshold across all images. […]
as §5

## methoxypolyethyleneglycol20000-propionyl-L-Isoleucyl-L-Glutamyl-Glycyl-L-Prolyl-L-Threonyl-L-Leucyl-L-Arginyl-L-Glutaminyl-L-2-Naphthylalanyl-L-Leucyl-L-Alanyl-L-Alanyl-L-Arginyl-Sarcosyl-Ne-(methoxypolyethyleneglycol20000-propionyl-L-Isoleucyl-L-Glutamyl-Glycyl-L-Prolyl-L-Threonyl-L-Leucyl-L-Arginyl-L-Glutaminyl-L-2-Naphthylalanyl-L-Leucyl-L-Alanyl-L-Alanyl-L-Arginyl-Sarcosyl-)-Lysinamide [TPOm]
[1]
  survival compared to placebo: substantial survival benefit
Ear vasculature [2]; 6 Gy to the ear, 300 μg/kg TPOm s.c. six hours later, 24 hours post-irradiation
  average slope of shear rate vs. L/E interactions: −8.7±6.4
Ear vasculature [2]; FIG. 9C
  L/E interaction at higher shear rates after RT: prevented L/E interaction at higher shear rates
[3]; TPOm/RT, 20 Gy prostate RT, 3,000 μg/kg s.c. 10 minutes after RT
  mean rate of body weight gain: 28.6±3.9 g/week
[3]; TPOm/sham (no RT), 3,000 μg/kg s.c. single dose
  mean rate of body weight gain: 37.7±3.3 g/week
[4]
  effect on total leukocytes, neutrophils or lymphocytes: no significant differences
Internal pudendal artery; TPOm following 20 Gy prostate RT, 0.4 mg/kg hydralazine, 9 weeks post-RT
  change in pudendal artery diameter in response to hydralazine: 24.1%±7.2%
Internal pudendal artery; nine weeks post-RT, diameter before and after hydralazine (FIG. 2)
  protection from impaired pudendal artery vasodilation following prostate RT: protected rats from impaired pudendal artery vasodilation
Internal pudendal artery; non-irradiated rats, TPOm alone, 0.4 mg/kg hydralazine, 9 weeks
  increase in pudendal artery diameter following hydralazine infusion: 10.4%±10%
Ear vasculature [5]
  permeability rates versus non-irradiated controls: not significantly different from non-irradiated controls
Erectile function; TPOm alone, no RT
  mean ICP:MAP versus unirradiated rats treated with saline: not significantly different
Erectile function; TPOm following 20 Gy prostate RT, 9 weeks
  ED penetrance (ICP:MAP ratio not greater than 0.6): 67%
Erectile function; single dose of TPOm 10 minutes post RT, ICP tested 9 weeks after RT (FIG. 4)
  prevention of prostate RT (20 Gy) induced erectile dysfunction: not prevented
Penile artery; TPOm/RT rats, nine weeks post-RT (FIG. 3B)
  RT-induced decrease in penile artery cross-sectional area: not seen
Penile artery; pair-wise comparison between treatment groups (FIG. 3C)
  CD31 density (CD31+ pixels/μm artery perimeter): no pair-wise differences
